Article PMC6409085, “Three odorant-binding proteins are involved in the behavioral response of Sogatella furcifera to rice plant volatiles” (PeerJ, 2019)
“And” between values parts separate entries of the source, which are not always exact repeats. Identical values can stand only once.

Legend:
[1] = target: SfurOBP1 (Sogatella furcifera, UniProt V5T8N5); experiment: biochemical; type: binding; settings: for Fluorescence competitive binding assay, fluorescence intensity: OBP1, three replicate columns
Outline: (§1)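 Fluorescence competitive binding used 2.0 µM SfurOBP and 2.0 µM 1-NPN reporter in 50 mM Tris-HCl, pH 7.4, with odorants at 2-20 µM. Fluorescence was read 2 min after adding the odorant (excitation 337 nm, emission 390-490 nm), in triplicate. Ki was calculated from IC50 as IC50/(1 + [1-NPN]/K1-NPN).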

[2] = target: SfurOBP11 (Sogatella furcifera, UniProt V5T6E3); experiment: biochemical; type: binding
Outline: as §1

[3] = target: SfurOBP2 (Sogatella furcifera, UniProt V5T759); experiment: biochemical; type: binding
Outline: as §1

[4] = target: SfurOBP3 (Sogatella furcifera, UniProt V5T818); experiment: biochemical; type: binding; settings: for Fluorescence competitive binding assay, fluorescence intensity: OBP3, three replicate columns;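 on Fluorescence competitive binding assay, fluorescence intensity: competitor odorant at 2 to 20 µM with protein and 1-NPN both 2.0 µM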
Outline: as §1

[5] = tested on: S. furcifera adults; experiment: Y-tube olfactometer behavioral trials; type: in vivo, Sogatella furcifera; settings: odorant 50 µL/L vs hexane; adults
Outline: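 Single S. furcifera adults (2 days post-emergence, starved 0.5 h) chose between odorant (100 µL of 50 µL/L on filter paper) and hexane control in a glass Y-tube, charcoal-filtered humidified air 300 mL/min per arm, 25 ± 1 °C, 50% RH. Choice scored if insect passed half an arm and stayed >1 min within 10 min; 45 insects per compound, chi-squared test.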
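Wherever Fluorescence competitive binding assay, fluorescence intensity is given: competitor odorant at 2 to 20 µM with protein and 1-NPN both 2.0 µM.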

SfurOBP1, sequence (V5T8N5 entry or part of it): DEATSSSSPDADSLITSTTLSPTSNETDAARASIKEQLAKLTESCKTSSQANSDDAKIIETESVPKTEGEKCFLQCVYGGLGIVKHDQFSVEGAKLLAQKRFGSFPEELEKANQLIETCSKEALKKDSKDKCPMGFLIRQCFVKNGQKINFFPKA
SfurOBP3, sequence (V5T818 entry or part of it): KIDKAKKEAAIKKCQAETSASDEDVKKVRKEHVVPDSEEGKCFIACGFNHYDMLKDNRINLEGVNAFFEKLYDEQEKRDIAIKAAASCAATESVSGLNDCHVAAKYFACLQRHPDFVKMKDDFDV
SfurOBP2, sequence (V5T759 entry or part of it): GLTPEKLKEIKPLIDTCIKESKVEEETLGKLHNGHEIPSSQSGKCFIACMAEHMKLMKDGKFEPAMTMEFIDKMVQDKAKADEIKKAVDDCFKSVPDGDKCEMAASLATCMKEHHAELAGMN
SfurOBP11, sequence (V5T6E3 entry or part of it): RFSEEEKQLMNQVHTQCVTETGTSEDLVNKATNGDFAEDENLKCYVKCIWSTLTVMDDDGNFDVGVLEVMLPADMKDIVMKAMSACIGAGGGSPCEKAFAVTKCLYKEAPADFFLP

COC(=O)c1ccccc1 [benzoic acid methylester]
IC50 [1]: > 20 µM
Fluorescence competitive binding assay, fluorescence intensity ([1]; ligand concentration 2 (μM)): 5064 and 4951 and 5158
Fluorescence competitive binding assay, fluorescence intensity ([1]; ligand concentration 4 (μM)): 5979 and 6427 and 5531
Fluorescence competitive binding assay, fluorescence intensity ([1]; ligand concentration 6 (μM)): 9023 and 8678 and 7700
Fluorescence competitive binding assay, fluorescence intensity ([1]; ligand concentration 8 (μM)): 8709 and 6440 and 6910
Fluorescence competitive binding assay, fluorescence intensity ([1]; ligand concentration 10 (μM)): 7708 and 6333 and 7083
Fluorescence competitive binding assay, fluorescence intensity ([1]; ligand concentration 12 (μM)): 5895 and 6787 and 5523
Fluorescence competitive binding assay, fluorescence intensity ([1]; ligand concentration 14 (μM)): 8915 and 6017 and 4981
Fluorescence competitive binding assay, fluorescence intensity ([1]; ligand concentration 16 (μM)): 7008 and 5157 and 5392
Fluorescence competitive binding assay, fluorescence intensity ([1]; ligand concentration 18 (μM)): 7131 and 8076 and 6232
Fluorescence competitive binding assay, fluorescence intensity ([1]; ligand concentration 20 (μM)): 6422 and 6546 and 6873
IC50 [2]: > 20 µM
Fluorescence intensity, fluorescence competitive binding assay, OBP11 ([2]; ligand concentration 2, replicate 1): 27311
Fluorescence intensity, fluorescence competitive binding assay, OBP11 ([2]; ligand concentration 2, replicate 2): 29257
Fluorescence intensity, fluorescence competitive binding assay, OBP11 ([2]; ligand concentration 2, replicate 3): 28341
Fluorescence intensity, fluorescence competitive binding assay, OBP11 ([2]; ligand concentration 4, replicate 1): 28195
Fluorescence intensity, fluorescence competitive binding assay, OBP11 ([2]; ligand concentration 4, replicate 2): 27454
Fluorescence intensity, fluorescence competitive binding assay, OBP11 ([2]; ligand concentration 4, replicate 3): 28935
Fluorescence intensity, fluorescence competitive binding assay, OBP11 ([2]; ligand concentration 6, replicate 1): 25204
Fluorescence intensity, fluorescence competitive binding assay, OBP11 ([2]; ligand concentration 6, replicate 2): 26496
Fluorescence intensity, fluorescence competitive binding assay, OBP11 ([2]; ligand concentration 6, replicate 3): 27787
Fluorescence intensity, fluorescence competitive binding assay, OBP11 ([2]; ligand concentration 8, replicate 1): 24731
Fluorescence intensity, fluorescence competitive binding assay, OBP11 ([2]; ligand concentration 8, replicate 2): 24972
Fluorescence intensity, fluorescence competitive binding assay, OBP11 ([2]; ligand concentration 8, replicate 3): 24489
Fluorescence intensity, fluorescence competitive binding assay, OBP11 ([2]; ligand concentration 10, replicate 1): 24285
Fluorescence intensity, fluorescence competitive binding assay, OBP11 ([2]; ligand concentration 10, replicate 2): 24217
Fluorescence intensity, fluorescence competitive binding assay, OBP11 ([2]; ligand concentration 10, replicate 3): 24352
Fluorescence intensity, fluorescence competitive binding assay, OBP11 ([2]; ligand concentration 12, replicate 1): 23537
Fluorescence intensity, fluorescence competitive binding assay, OBP11 ([2]; ligand concentration 12, replicate 2): 23314
Fluorescence intensity, fluorescence competitive binding assay, OBP11 ([2]; ligand concentration 12, replicate 3): 23760
Fluorescence intensity, fluorescence competitive binding assay, OBP11 ([2]; ligand concentration 14, replicate 1): 19900
Fluorescence intensity, fluorescence competitive binding assay, OBP11 ([2]; ligand concentration 14, replicate 2): 22587
Fluorescence intensity, fluorescence competitive binding assay, OBP11 ([2]; ligand concentration 14, replicate 3): 21306
Fluorescence intensity, fluorescence competitive binding assay, OBP11 ([2]; ligand concentration 16, replicate 1): 18401
Fluorescence intensity, fluorescence competitive binding assay, OBP11 ([2]; ligand concentration 16, replicate 2): 18544
Fluorescence intensity, fluorescence competitive binding assay, OBP11 ([2]; ligand concentration 16, replicate 3): 17724
Fluorescence intensity, fluorescence competitive binding assay, OBP11 ([2]; ligand concentration 18, replicate 1): 22003
Fluorescence intensity, fluorescence competitive binding assay, OBP11 ([2]; ligand concentration 18, replicate 2): 20975
Fluorescence intensity, fluorescence competitive binding assay, OBP11 ([2]; ligand concentration 18, replicate 3): 22765
Fluorescence intensity, fluorescence competitive binding assay, OBP11 ([2]; ligand concentration 20, replicate 1): 21640
Fluorescence intensity, fluorescence competitive binding assay, OBP11 ([2]; ligand concentration 20, replicate 2): 22200
Fluorescence intensity, fluorescence competitive binding assay, OBP11 ([2]; ligand concentration 20, replicate 3): 21920
IC50 [3]: > 20 µM
Fluorescence competitive binding assay, OBP2 (raw fluorescence reading) ([3]; ligand concentration 2 (unit not given), replicate column 1 of 3): 20302
Fluorescence competitive binding assay, OBP2 (raw fluorescence reading) ([3]; ligand concentration 2 (unit not given), replicate column 2 of 3): 19349
Fluorescence competitive binding assay, OBP2 (raw fluorescence reading) ([3]; ligand concentration 2 (unit not given), replicate column 3 of 3): 19856
Fluorescence competitive binding assay, OBP2 (raw fluorescence reading) ([3]; ligand concentration 4 (unit not given), replicate column 1 of 3): 20922
Fluorescence competitive binding assay, OBP2 (raw fluorescence reading) ([3]; ligand concentration 4 (unit not given), replicate column 2 of 3): 22649
Fluorescence competitive binding assay, OBP2 (raw fluorescence reading) ([3]; ligand concentration 4 (unit not given), replicate column 3 of 3): 23660
Fluorescence competitive binding assay, OBP2 (raw fluorescence reading) ([3]; ligand concentration 6 (unit not given), replicate column 1 of 3): 19982
Fluorescence competitive binding assay, OBP2 (raw fluorescence reading) ([3]; ligand concentration 6 (unit not given), replicate column 2 of 3): 19598
Fluorescence competitive binding assay, OBP2 (raw fluorescence reading) ([3]; ligand concentration 6 (unit not given), replicate column 3 of 3): 20363
Fluorescence competitive binding assay, OBP2 (raw fluorescence reading) ([3]; ligand concentration 8 (unit not given), replicate column 1 of 3): 18016
Fluorescence competitive binding assay, OBP2 (raw fluorescence reading) ([3]; ligand concentration 8 (unit not given), replicate column 2 of 3): 17876
Fluorescence competitive binding assay, OBP2 (raw fluorescence reading) ([3]; ligand concentration 8 (unit not given), replicate column 3 of 3): 18155
Fluorescence competitive binding assay, OBP2 (raw fluorescence reading) ([3]; ligand concentration 10 (unit not given), replicate column 1 of 3): 17866
Fluorescence competitive binding assay, OBP2 (raw fluorescence reading) ([3]; ligand concentration 10 (unit not given), replicate column 2 of 3): 16967
Fluorescence competitive binding assay, OBP2 (raw fluorescence reading) ([3]; ligand concentration 10 (unit not given), replicate column 3 of 3): 17417
Fluorescence competitive binding assay, OBP2 (raw fluorescence reading) ([3]; ligand concentration 12 (unit not given), replicate column 1 of 3): 14659
Fluorescence competitive binding assay, OBP2 (raw fluorescence reading) ([3]; ligand concentration 12 (unit not given), replicate column 2 of 3): 16003
Fluorescence competitive binding assay, OBP2 (raw fluorescence reading) ([3]; ligand concentration 12 (unit not given), replicate column 3 of 3): 15331
Fluorescence competitive binding assay, OBP2 (raw fluorescence reading) ([3]; ligand concentration 14 (unit not given), replicate column 1 of 3): 15808
Fluorescence competitive binding assay, OBP2 (raw fluorescence reading) ([3]; ligand concentration 14 (unit not given), replicate column 2 of 3): 14578
Fluorescence competitive binding assay, OBP2 (raw fluorescence reading) ([3]; ligand concentration 14 (unit not given), replicate column 3 of 3): 16066
Fluorescence competitive binding assay, OBP2 (raw fluorescence reading) ([3]; ligand concentration 16 (unit not given), replicate column 1 of 3): 13829
Fluorescence competitive binding assay, OBP2 (raw fluorescence reading) ([3]; ligand concentration 16 (unit not given), replicate column 2 of 3): 13659
Fluorescence competitive binding assay, OBP2 (raw fluorescence reading) ([3]; ligand concentration 16 (unit not given), replicate column 3 of 3): 13740
Fluorescence competitive binding assay, OBP2 (raw fluorescence reading) ([3]; ligand concentration 18 (unit not given), replicate column 1 of 3): 13696
Fluorescence competitive binding assay, OBP2 (raw fluorescence reading) ([3]; ligand concentration 18 (unit not given), replicate column 2 of 3): 13929
Fluorescence competitive binding assay, OBP2 (raw fluorescence reading) ([3]; ligand concentration 18 (unit not given), replicate column 3 of 3): 14161
Fluorescence competitive binding assay, OBP2 (raw fluorescence reading) ([3]; ligand concentration 20 (unit not given), replicate column 1 of 3): 14205
Fluorescence competitive binding assay, OBP2 (raw fluorescence reading) ([3]; ligand concentration 20 (unit not given), replicate column 2 of 3): 14645
Fluorescence competitive binding assay, OBP2 (raw fluorescence reading) ([3]; ligand concentration 20 (unit not given), replicate column 3 of 3): 13761
IC50 [4]: > 20 µM
Fluorescence competitive binding assay, fluorescence intensity ([4]; ligand concentration 2): 65046 and 56813 and 65508
Fluorescence competitive binding assay, fluorescence intensity ([4]; ligand concentration 4): 67380 and 59779 and 65465
Fluorescence competitive binding assay, fluorescence intensity ([4]; ligand concentration 6): 60647 and 61139 and 65169
Fluorescence competitive binding assay, fluorescence intensity ([4]; ligand concentration 8): 62761 and 59088 and 65223
Fluorescence competitive binding assay, fluorescence intensity ([4]; ligand concentration 10): 58066 and 60267 and 58488
Fluorescence competitive binding assay, fluorescence intensity ([4]; ligand concentration 12): 53979 and 46844 and 52174
Fluorescence competitive binding assay, fluorescence intensity ([4]; ligand concentration 14): 52567 and 46884 and 49119
Fluorescence competitive binding assay, fluorescence intensity ([4]; ligand concentration 16): 43090 and 45767 and 42573
Fluorescence competitive binding assay, fluorescence intensity ([4]; ligand concentration 18): 48410 and 52387 and 52599
Fluorescence competitive binding assay, fluorescence intensity ([4]; ligand concentration 20): 47608 and 41929 and 45047
number of insects choosing hexane arm [5]: 10
number of insects choosing volatilies arm [5]: 9
number of insects failed (no choice) [5]: 20
